The text below walks through data of patent EP0755942B1, “N-AMIDINO […]” (DAIICHI PHARMACEUTICAL CO., LTD., priority 1994, dated 1995).

The subject of one experiment is Mice. The experiment in a line: analgesic activity by pressure stimulation method (tail base). The class given is in vivo. The conditions noted are these: dose that induced 50 percent of % of MPE; for ED50(mg/kg) p.o.: oral administration; for ED50(mg/kg) s.c.: subcutaneous administration (skin in the backs). As to the method: The analgesic activities of the peptide derivatives of the present invention were evaluated by pressure stimulation method. Mice were subjected to pressure stimulation at the bases of their tails at the rate of 10 mmHg/second. […] For the experiments, mice that normally responded to a pressure of 40-50 mmHg were used. The maximum stimulating pressure was 100 mmHg. Analgesic activity was calculated as percent of maximum possible effect (% of MPE) according to the equation: % of MPE =(Pt - Po)/(Pc - Po)× 100 [formula] wherein Po is the pain reaction threshold before the administration of a drug; Pt is the pain reaction threshold "t" minutes after the administration of the drug; and Pc is the maximum stimulating pressure. ED50 values were calculated based on dose response curves as doses that induced 50 percent of % of MPE and analgesic activities of the drugs were compared.

The conditions of experiment [1]: intraventricular administration, relative to morphine; cited from earlier work.
For experiment [2] the following is noted: cited from earlier work.

On to `N=C(N)NCCC[C@@H](NC(=O)[C@H](Cc1ccc(O)cc1)NC(=N)N)C(=O)N[C@@H](Cc1ccccc1)C(=O)NCCC(N)=O` [H2NC(NH)-Tyr-D-Arg-Phe-NHCH2CH2CONH2], for which, in the experiment with Mice, the “ED50(mg/kg) p.o.” value is recorded as 10.7 mg/kg and the “ED50(mg/kg) s.c.” value is 0.13 mg/kg. As for `CN(CC(N)=O)C(=O)[C@H](Cc1ccccc1)NC(=O)[C@@H](CCCNC(=N)N)NC(=O)[C@H](Cc1ccc(O)cc1)NC(=N)N` [H2NC(NH)-Tyr-(D)Arg-Phe-N(CH3)CH2CONH2], in the experiment on Mice, the “ED50(mg/kg) s.c.” value is recorded as 0.27 mg/kg. Turning to Dermorphine, the “analgesic effect higher than morphine” value in experiment [1] is given as “about 1,000 fold”. In the case of `CN(CC(=O)O)C(=O)[C@H](Cc1ccccc1)NC(=O)[C@@H](CCCNC(=N)N)NC(=O)[C@H](Cc1ccc(O)cc1)NC(=N)N` [H2NC(NH)-Tyr-D-Arg-Phe-N(CH3)CH2COOH], in the experiment on Mice, the “ED50(mg/kg) p.o.” value turned out to be 17.8 mg/kg and the “ED50(mg/kg) s.c.” value was found to be 0.39 mg/kg. For the compound `CN(CCC(=O)O)C(=O)[C@H](Cc1ccccc1)NC(=O)[C@@H](CCCNC(=N)N)NC(=O)[C@H](Cc1ccc(O)cc1)NC(=N)N` [H2NC(NH)-Tyr-D-Arg-Phe-N(CH3)CH2CH2COOH], in the experiment on Mice, the “ED50(mg/kg) p.o.” value turned out to be 6.6 mg/kg and the “ED50(mg/kg) s.c.” value is listed as 0.10 mg/kg.

For `N=C(N)NCCC[C@@H](NC(=O)[C@H](Cc1ccc(O)cc1)NC(=N)N)C(=O)N[C@@H](Cc1ccccc1)C(=O)NCCCO` [H2NC(NH)-Tyr-D-Arg-Phe-NHCH2CH2CH2OH], in the experiment with Mice, the “ED50(mg/kg) s.c.” value stood at 0.88 mg/kg.

As for `CCN(CCC(=O)O)C(=O)[C@H](Cc1ccccc1)NC(=O)[C@@H](CCCNC(=N)N)NC(=O)[C@H](Cc1ccc(O)cc1)NC(=N)N` [H2NC(NH)-Tyr-D-Arg-Phe-N(CH2CH3)CH2CH2COOH], in the experiment with Mice, the “ED50(mg/kg) p.o.” value was 16.0 mg/kg and the “ED50(mg/kg) s.c.” value stood at 0.15 mg/kg. For `COC(=O)CCN(C)C(=O)[C@H](Cc1ccccc1)NC(=O)[C@@H](CCCNC(=N)N)NC(=O)[C@H](Cc1ccc(O)cc1)NC(=N)N` [H2NC(NH)-Tyr-D-Arg-Phe-N(CH3)CH2CH2COOCH3], in the experiment on Mice, the “ED50(mg/kg) p.o.” value is 8.9 mg/kg and the “ED50(mg/kg) s.c.” value worked out at 0.12 mg/kg. Take Tyr-D-Arg^2-Phe-Sarcosine [TAPS]: the “potency relative to dermorphin” value in experiment [2] (opioid effects such as analgesia, relative to dermorphin) is recorded as “about 6 times”. Besides, the “duration of sufficient analgesic effects” value in experiment [2] (oral administration) was 3 h.

With `N=C(N)NCCC[C@@H](NC(=O)[C@H](Cc1ccc(O)cc1)NC(=N)N)C(=O)N[C@@H](Cc1ccccc1)C(=O)NCCC(=O)O` [H2NC(NH)-Tyr-D-Arg-Phe-NHCH2CH2COOH], in the experiment with Mice, the “ED50(mg/kg) p.o.” value came to 5.8 mg/kg and the “ED50(mg/kg) s.c.” value came out at 0.14 mg/kg. Regarding `CN(C)C(=O)[C@H](Cc1ccccc1)NC(=O)[C@@H](CCCNC(=N)N)NC(=O)[C@H](Cc1ccc(O)cc1)NC(=N)N` [H2NC(NH)-Tyr-(D)Arg-Phe-N(Me)2], in the experiment on Mice, the “ED50(mg/kg) s.c.” value is recorded as 1.22 mg/kg.
